According to patent publication US7713994B2 (Wyeth LLC, priority 2005, dated 2010):

Molecular target: T1, cyclin D1/cdk 4 enzyme (Homo sapiens, UniProt P11802)
T1 construct: made in house; host or cells: Sf9 insect cells, recombinant baculovirus
Assay: CDK4 ELISA kinase assay (phospho-Rb ser 795 detection)
Type: biochemical
Conditions: In Vitro Enzyme Assay, cyclin D1/cdk 4, read-out: CDK4 IC50
Procedure: • 1. High-binding ELISA microtiter plates (Costar) were coated with 40 μl of the kinase substrate (GST fusion of C-terminal fragment of the retinoblastoma susceptibility gene product) diluted to 10 μg/ml in tris-buffered saline (TBS), overnight at 4° C. • 2. Non-specific binding sites were blocked for 1 hour at 4° C. with Superblock in TBS (Pierce), and the plates rinsed with water. • 3. For the screen, 1.5 μl of test compound (200 μg/ml stock in 20% DMSO/20 mM HEPES, pH 7.5) was added to each well. Final dose of the test compound in the assay was 10 ug/ml. […] The kinase reaction (30 μl) was dispensed into each well. Reactions contained 200 μM ATP, 0.5 mg/ml bovine serum albumin (BSA; Sigma), and 0.5 μl partially purified cyclin D1/cdk 4 enzyme*. The enzyme complex is expressed in insect cells (Sf9) infected with recombinant baculovirus and partially purified using ammonium sulfate fractionation. Reaction volumes were adjusted to 30 μl with kinase assay buffer (50 mM HEPES, pH 7.5, 10 mM MgCl2, 5% glycerol, 10 mM 2-mercaptoethanol). • *: For CDK2 assay, 1.0 μl cyclin E/CDK2 enzyme (diluted 1:1000 in kinase assay buffer) was used. The enzyme is isolated from insect cells (Sf9) infected with recombinant baculovirus and partially purified using ammonium sulfate fractionation. For CDK1 assay, 0.08 μl cyclin B/CDK1 enzyme [New England BioLabs; the enzyme is isolated from insect cells (Sf9) infected with recombinant baculovirus carrying human cdc 2 and human cyclin B] was used.
[…] • 5. Plates were incubated at 30° C. for 1 hour. • 6. The reaction mixture was removed by aspiration and replaced with 250 μl TBS containing 0.1% Tween-20 and 5% nonfat dry milk (blocking buffer). The plates were incubated at 4° C. for 1 hour. • 7. The blocking buffer was removed and replaced with 50 μl of the primary antibody [anti-phospho-Rb ser 795 (New England BioLabs) diluted 1:1000 in blocking buffer]. Incubation was at 4° C. for 16-20 hours. • 8. The wells were rinsed 3 times with 250 μl of TBS containing 0.1% Tween-20 followed by the addition of 50 μl of secondary antibody [anti-rabbit IgG conjugated to horseradish peroxidase (Amersham Life Science) diluted 1:1000 in blocking buffer]. • 9. After a 1 hour incubation at room temperature, the wells were rinsed 3 times with 250 μl of TBS/0.1% Tween 20. • 10. TMB (3,3′,5,5′-tetramethylbenzidine dihydrochloride) substrate solution (100 μl; Pierce) was added to each well and the color development reaction allowed to proceed 5-10 minutes at room temperature with shaking. The reaction was stopped by the addition of 2N sulfuric acid (100 μl) and the absorbance values read at 450 nm in a microplate reader (Molecular Devices). Analysis of Results: • 1. The percentage of the absorbance value in wells containing the test compound relative to control wells (no test agent) was determined. • 2. IC50 values of selected compounds were determined from inhibition curves, after subtracting background values (no substrate).

T1 sequence (P11802 whole entry, species assumed): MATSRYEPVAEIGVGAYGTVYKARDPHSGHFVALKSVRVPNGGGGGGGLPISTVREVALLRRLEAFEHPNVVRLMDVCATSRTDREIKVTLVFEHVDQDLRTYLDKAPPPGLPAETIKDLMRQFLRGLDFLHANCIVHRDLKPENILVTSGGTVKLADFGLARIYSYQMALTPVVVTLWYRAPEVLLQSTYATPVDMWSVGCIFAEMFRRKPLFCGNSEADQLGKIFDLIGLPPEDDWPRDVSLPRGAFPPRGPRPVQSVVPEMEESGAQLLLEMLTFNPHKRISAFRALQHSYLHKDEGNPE
T1 sequence (P24385 whole entry partner, species assumed): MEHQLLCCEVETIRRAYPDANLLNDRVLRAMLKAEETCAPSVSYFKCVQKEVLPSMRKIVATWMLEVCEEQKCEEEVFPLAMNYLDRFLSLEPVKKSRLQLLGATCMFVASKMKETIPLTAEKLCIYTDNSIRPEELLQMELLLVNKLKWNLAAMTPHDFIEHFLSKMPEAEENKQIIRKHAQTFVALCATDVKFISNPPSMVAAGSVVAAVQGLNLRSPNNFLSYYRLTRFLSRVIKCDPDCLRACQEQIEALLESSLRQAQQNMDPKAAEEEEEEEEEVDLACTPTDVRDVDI

Structure (SMILES)	IC50 [µM]
O=C1NC(=O)c2ccccc2C1=CNCc1ccc(NS(=O)(=O)c2cccs2)cc1 [Example 588, Thiophene-2-sulfonic acid (4-{[(1,3-dioxo-2,3-dihydro-1H-isoquinolin-4-ylidenemethyl)-amino]-methyl}-phenyl)-amide]	37.3
O=C1NC(=O)c2ccccc2C1=CNCc1ccc(NS(=O)(=O)Cc2ccccc2)cc1 [Example 590, N-(4{[(1,3-Dioxo-2,3-dihydro-1H-isoquinolin-4-ylidenemethyl)-amino]-methyl}-phenyl)-C-phenyl-methanesulfonamide]	38.5
CCCS(=O)(=O)Nc1ccc(CNC=C2C(=O)NC(=O)c3ccccc32)cc1 [Example 592, Propane-1-sulfonic acid (4{[(1,3-dioxo-2,3-dihydro-1H-isoquinolin-4-ylidenemethyl)-amino]-methyl}-phenyl)-amide]	29.9
CCN1CCN(c2ccc(NC=C3C(=O)NC(=O)c4ccccc43)cc2)CC1 [Example 595, 4-{[4-(4-Ethyl-piperazin-1-yl)-phenylamino]-methylene}-4H-isoquinoline-1,3-dione]	27.4
N#CCN1CCN(c2ccc(N/C=C3\C(=O)NC(=O)c4ccccc43)cc2)CC1 [Example 596, (4-{4-[(1,3-Dioxo-2,3-dihydro-1H-isoquinolin-4-ylidenemethyl)-amino]-phenyl}-piperazin-1-yl)-acetonitrile]	27.7
C=CCN1CCN(c2ccc(NC=C3C(=O)NC(=O)c4ccccc43)cc2)CC1 [Example 597, 4-{[4-(4-Allyl-piperazin-1-yl)-phenylamino]-methylene}-4H-isoquinoline-1,3-dione]	39.2
O=C1NC(=O)c2ccccc2C1=CNc1ccc(N2CCN(CCO)CC2)cc1 [Example 598, 4-({4-[4-(2-Hydroxy-ethyl)-piperazin-1-yl]-phenylamino}-methylene)-4H-isoquinoline-1,3-dione]	33.1
CCN(CC)CCN1CCN(c2ccc(NC=C3C(=O)NC(=O)c4ccccc43)cc2)CC1 [Example 599, 4-({4-[4-(2-Diethylamino-ethyl)-piperazin-1-yl]-phenylamino}-methylene)-4H-isoquinoline-1,3-dione]	39.7
CC(C)N1CCN(c2ccc(NC=C3C(=O)NC(=O)c4ccccc43)cc2)CC1 [Example 600, 4-{[4-(4-Isopropyl-piperazin-1-yl)-phenylamino]-methylene}-4H-isoquinoline-1,3-dione]	23.1
O=C1NC(=O)c2ccccc2C1=CNc1ccc(N2CCN(C3CCCC3)CC2)cc1 [Example 601, 4-{[4-(4-Cyclopentyl-piperazin-1-yl)-phenylamino]-methylene}-4H-isoquinoline-1,3-dione]	12
O=C1NC(=O)c2ccccc2C1=CNc1ccc(N2CCN(CC3CCC3)CC2)cc1 [Example 602, 4-{[4-(4-Cyclobutylmethyl-piperazin-1-yl)-phenylamino]-methylene}-4H-isoquinoline-1,3-dione]	21.5
O=C1NC(=O)c2ccccc2C1=CNc1ccc(CNS(=O)(=O)CC(F)(F)F)cc1 [Example 605, 2,2,2-Trifluoro-ethanesulfonic acid 4-[(1,3-dioxo-2,3-dihydro-1H-isoquinolin-4-ylidenemethyl)-amino]-benzylamide]	22.1
CCNS(=O)(=O)c1ccc(CN/C=C2\C(=O)NC(=O)c3ccccc32)cc1 [Example 606, 4-{[(1,3-Dioxo-2,3-dihydro-1H-isoquinolin-4-ylidenemethyl)-amino]-methyl}-N-ethyl-benzenesulfonamide]	21.2
O=C1NC(=O)c2ccccc2C1=CNCc1ccc(S(=O)(=O)NCc2cccnc2)cc1 [Example 607, 4-{[(1,3-Dioxo-2,3-dihydro-1H-isoquinolin-4-ylidenemethyl)-amino]-methyl}-N-pyridin-3-ylmethyl-benzenesulfonamide]	45.5
CS(=O)(=O)NCc1ccc(NC=C2C(=O)NC(=O)c3ccccc32)cc1 [Example 612, N-{4-[(1,3-Dioxo-2,3-dihydro-1H-isoquinolin-4-ylidenemethyl)-amino]-benzyl}-methanesulfonamide]	48.9
CCS(=O)(=O)NCc1ccc(N/C=C2\C(=O)NC(=O)c3ccccc32)cc1 [Example 613, Ethanesulfonic acid 4-[(1,3-dioxo-2,3-dihydro-1H-isoquinolin-4-ylidenemethyl)-amino]-benzylamide]	33.1
CCCN(CCC)Cc1ccc(NC=C2C(=O)NC(=O)c3ccccc32)cc1 [Example 614, 4-[(4-Dipropylaminomethyl-phenylamino)-methylene]-4H-isoquinoline-1,3-dione]	25.3
O=C1NC(=O)c2ccccc2C1=CNc1ccc(CN2CCCC(O)C2)cc1 (stereo not shown) [Example 615, 4-{[4-(3-Hydroxy-piperidin-1-ylmethyl)-phenylamino]-methylene}-4H-isoquinoline-1,3-dione]	25.7
COCCN(C)Cc1ccc(N/C=C2\C(=O)NC(=O)c3ccccc32)cc1 [Example 616, 4-[(4-{[(2-Methoxy-ethyl)-methyl-amino]-methyl}-phenylamino)-methylene]-4H-isoquinoline-1,3-dione]	14.8

Second part, the compound after the results:

IC50 [µM]	Structure (SMILES)
9.6	O=C1NC(=O)c2ccccc2C1=CNCc1cccc(NS(=O)(=O)CC(F)(F)F)c1 [Example 582, 2,2,2-Trifluoro-ethanesulfonic acid (3-{[(1,3-dioxo-2,3-dihydro-1H-isoquinolin-4-ylidenemethyl)-amino]-methyl}-phenyl)-amide]
17.9	CCS(=O)(=O)Nc1cccc(CNC=C2C(=O)NC(=O)c3ccccc32)c1 [Example 583, Ethanesulfonic acid (3-{[(1,3-dioxo-2,3-dihydro-1H-isoquinolin-4-ylidenemethyl)-amino]-methyl}-phenyl)-amide]
19.4	CCCS(=O)(=O)Nc1cccc(CNC=C2C(=O)NC(=O)c3ccccc32)c1 [Example 584, Propane-1-sulfonic acid (3-{[(1,3-dioxo-2,3-dihydro-1H-isoquinolin-4-ylidenemethyl)-amino]-methyl}-phenyl)-amide]
42.5	CC(=O)Nc1cccc(CNC=C2C(=O)NC(=O)c3ccccc32)c1 [Example 585, N-(3-{[(1,3-Dioxo-2,3-dihydro-1H-isoquinolin-4-ylidenemethyl)-amino]-methyl)-phenyl)-acetamide]
31.3	O=C1NC(=O)c2ccccc2C1=CNCc1cccc(NC(=O)C2CC2)c1 [Example 586, Cyclopropanecarboxylic acid (3-{[(1,3-dioxo-2,3-dihydro-1H-isoquinolin-4-ylidenemethyl)-amino]-methyl}-phenyl)-amide]
43.5	O=C1NC(=O)c2ccccc2C1=CNCc1cccc(NC(=O)C2CCC2)c1 [Example 587, Cyclobutanecarboxylic acid (3-{[(1,3-dioxo-2,3-dihydro-1H-isoquinolin-4-ylidenemethyl)-amino]-methyl}-phenyl)-amide]
36.4	CS(=O)(=O)Nc1ccc(CNC=C2C(=O)NC(=O)c3ccccc32)cc1 [Example 589]
48.3	O=C1NC(=O)c2ccccc2C1=CNCc1cccc(NCC(F)(F)F)c1 [Example 603, 4-{[3-(2,2,2-Trifluoro-ethylamino)-benzylamino]-methylene}-4H-isoquinoline-1,3-dione]
23.5	CNc1ccc(CN/C=C2\C(=O)NC(=O)c3ccccc32)cc1 [Example 604, 4-[(4-Methylamino-benzylamino)-methylene]-4H-isoquinoline-1,3-dione]
